The results in this text go back to patent publication US6583154B1, “Compounds and methods which modulate feeding behavior and related diseases” (Amgen Inc., priority 1998, dated 2003).

Series [1] deals with Long-Evans male rats. As to the kind of experiment: IP administration of compounds in fasted Long-Evans male rats, 2 hr food intake. Type of series: in vivo. Particulars: Rattus norvegicus; male Long Evans rats fasted 18-20 hr; 30 mg/kg (ip) in 2% tween; food given after 30 min, weighed 2 hr later; vs vehicle; read-out: inhibition of feeding (2 hr food intake). As for the experimental part: Protocol for IP Administration of Compounds in Fasted Long-Evans Male Rats
Male Long Evans rats (85-100 g)were obtained from Harlan (Indianapolis, Ind.) and were given at least a one week acclimation period to Ambients animal care facilities. Animals were individually housed and were provided ad libitum food and water. For testing, rats were fasted for 18-20 hr (overnight) prior to the start of the experiment. On the test day, test compounds or vehicle was administered via the intraperitoneal (i.p.) route of administration. Test compounds were suspended in a 2% tween solution; the 2% tween solution was used as the vehicle treatment (control group). Group sizes for each treatment were 6-8 animals. After 30 min, premeasured food was placed into the cages. Two hours later, the food was weighed again. The difference between 2 hr weight and the premeasured weight was taken as 2 hr food intake.

A further series concerns Male BALB-C mice. As to the kind of experiment: IP administration of compounds in fasted male BALB-C mice, 2 hr food intake. Format: in vivo. The conditions noted are these: Mus musculus; male BALB-C mice fasted 18-20 hr; 30 mg/kg (ip) in 2% tween; food given after 30 min, weighed 2 hr later; vs vehicle; read-out: inhibition of feeding (2 hr food intake). An excerpt: Protocol For IP Administration Of Compounds In Male BALB-C Mice.
Male BALB-C mice (20-25 g)were obtained from Charles Rivers (Wilmington, Mass.) and were given at least a one week acclimation period to Amgen's animal care facilities. Animals were housed 10/cage and were provided ad libitum food and water. For testing, mice were fasted for 18-20 hr (overnight) prior to the start of the experiment. On the day of the experiment, mice were removed from group housing and placed into individual cages (without food). Test compounds or vehicle was then administered via the intraperitoneal (i.p.) route of administration. Test compounds were suspended in a 2% tween solution; the 2% tween solution was used as the vehicle treatment (control group). Group sizes for each treatment were 6-8 animals. After 30 min, premeasured food was placed into the cages. Two hours later, the food was weighed again. The difference between 2 hr weight and the premeasured weight was taken as 2 hr food intake.

Series [2] concerns Long-Evans male rats. As to the kind of experiment: Icv administration of compounds in food-deprived Long-Evans male rats, food intake. The conditions noted are these: Long-Evans male rats food deprived for 16 hours; I.C.V. injection in DMSO, 20 μl; 4 hours post-injection; vehicle 8.69 ± 0.53; * significantly different from vehicle, p < 0.05. Type of series: in vivo. How it is done: Protocol for Icv Administration of Compounds in Food-Deprived Long-Evans Male Rats
Adult male Long-Evans rats (approx. 275 g) were obtained from Charles River Laboratories (Wilmington, MA) and given one week to acclimate to the animal facility. Animals were housed individually and given ad-lib access to food and water. After acclimation, animals were anesthetized (75 mg/kg Sodium Nembutal) and implanted with 23 g cannulas (Plastics One, Roanoke, VA) into the right lateral cerebral ventricle. All animals were given at least 1 week post-operative recover before any experiment.
Animals were food deprived for 16 hours prior to injections. Intracerebroventricular injection of compounds was done in awake, unrestrained animals in a DMSO vehicle in a volume of 20 μl. Immediately following the injection, the animals were returned to their home cage and were provided with a pre-weighed portion of regular rat chow pellets. Total food consumed was measured at 2 and 4 hours post-injection.

A further series has as its system OB/OB female mice. As to the kind of experiment: Icv administration of compounds in ad-lib fed OB/OB female mice, food intake. Format: in vivo. Particulars: I.C.V. injection in 100% DMSO, 5 μl, 4 hours post-injection, vehicle 0.61 ± 0.10, * significantly different from vehicle, p < 0.05. An excerpt: Protocol For Icv Administration of Compounds In Ad-Lib Fed OB/OB Female Mice.
Eight week old (approx. 50 g) OB/OB female mice were obtained from Jackson Laboratories (Bar Harbor, ME) and given one week to acclimate to the animal facility before the experiment. Animals were housed 10 per cage and were provided with food and water ad-lib. Immediately prior to injection, animals were removed from group housing and lightly anesthetized using 4% isofluorane vapor. Freehand intracerebroventricular (“icv”) injection of compounds was done in a 100% DMSO vehicle in a volume of 5 μl. Immediately following the injection, animals were placed in individual cages and were provided with a pre-weighed portion of regular chow pellets. Total amount of food consumed was measured at 1, 2, 4 and 24 hours post-injection.

Structures can show the parent of a compound that is named as a salt.

The term melting point denotes the temperature of the solid-liquid transition. With `CCc1nc(N2CCCCC2)c2oc(-c3ccc(Cl)cc3)cc2n1` [Example 96, 6-(4-Chlorophenyl)-2-ethyl-4-piperidinylfurano[3,2-d]pyrimidine], the melting point was over 288 °C. Also, the inhibition in vivo at 30 mg/kg in the series on Long-Evans male rats [1] is at least 10%. In addition, the inhibition in vivo at 30 mg/kg in the series with Male BALB-C mice was at least 10%.
`CCN(CC)c1nc(C)nc2cc(-c3ccccc3)[nH]c12` [Example 1f, Diethyl(2-methyl-6-phenylpyrrolo[2,3-e]pyrimidin-4-yl)amine] had a melting point of 184 to 185 °C. Moreover, in the series on Long-Evans male rats [2], the “4 hr food intake (g ± S.E.M.)” value is 5.13 ± 1.40* g.
With `Cc1nc(N2CCCCC2)c2[nH]c(-c3cc(C(F)(F)F)cc(C(F)(F)F)c3)cc2n1.Cl` [Example 122, 6-((3,5-bis(Trifluoromethyl)phenyl)-2-methyl-4-piperidylpyrrolo[3,2-d]pyrimidine Hydrochloride], the inhibition in vivo at 30 mg/kg with Long-Evans male rats [1] and with Male BALB-C mice was at least 10% throughout.
For `Cc1nc(N2CCCCC2)c2[nH]c(-c3cccs3)cc2n1.Cl` [Example 76c, 2-(2-Methyl-4-piperidylpyrrolo[4,5-d]pyrimidin-6-yl)thiophene Hydrochloride], the melting point is over 280 °C. Also, the inhibition in vivo at 30 mg/kg with Long-Evans male rats [1] is at least 10%. For the same compound, the inhibition in vivo at 30 mg/kg in the series on Male BALB-C mice was at least 10%.
For the compound `Cc1nc(N2CCCCC2)c2sc(-c3ccccc3)cc2n1` [Example 32, 2-Methyl-6-phenyl-4-piperidylthiopheno[3,2-d]pyrimidine Hydrochloride], the inhibition in vivo at 30 mg/kg with Long-Evans male rats [1] and in the series on Male BALB-C mice was at least 10% each time.
With `CCc1nc(N2CCCCC2)c2[nH]c(-c3ccccc3)cc2n1` [Example 68c, 2-Ethyl-6-phenyl-4-piperidylpyrrolo[3,2-d]pyrimidine Hydrochloride Monohydrate], the inhibition in vivo at 30 mg/kg in the series with Long-Evans male rats [1] and with Male BALB-C mice was at least 10% throughout.
`Cc1nc(N2CC=CCC2)c2[nH]c(-c3ccccc3)cc2n1` [Example 65, 2-Methyl-6-phenyl-4-(1,2,3,6-tetrahydropyridinyl)pyrrolo[3,2-d]pyrimidine Hydrochloride]: the inhibition in vivo at 30 mg/kg with Long-Evans male rats [1] and in the series with Male BALB-C mice was at least 10% each time.
With `Cc1nc(N2CCCCC2)c2[nH]c(-c3ccc(C)c(C)c3)cc2n1` [Example 124, 6-(3,4-Dimethylphenyl)-2-methyl-4-piperidylpyrrolo[3,2-d]pyrimidine Hydrochloride Hydrate], the inhibition in vivo at 30 mg/kg with Long-Evans male rats [1] and in the series on Male BALB-C mice was at least 10% in each case.
In the case of `COc1ccc(-c2cc3nc(C)nc(N4CCCCC4)c3[nH]2)cc1` [Example 71e, 4-Methoxy-1-(2-methyl-4-piperidylpyrrolo[4,5-d]pyrimidin-6-yl)benzene Hydrochloride Monohydrate], the inhibition in vivo at 30 mg/kg in the series with Long-Evans male rats [1] and in the series with Male BALB-C mice was at least 10% in each case.
Take `Cc1nc(N2CCCCC2)c2[nH]c(-c3ccc(O)cc3)cc2n1` [Example 72, 2-methyl-4-piperidyl-6-(4-hydroxyphenyl)pyrrolo[3,2-d]pyrimidine]: the inhibition in vivo at 30 mg/kg in the series with Long-Evans male rats [1] and in the series on Male BALB-C mice was at least 10% throughout.
On to `Cc1nc(N2CCCCC2)c2[nH]c(-c3ccccc3)cc2n1` [Example 35, 2-methyl-6-phenyl-4-(piperidinyl)pyrrolo[3,2-d]pyrimidine], for which the inhibition in vivo at 30 mg/kg in the series with Long-Evans male rats [1] and in the series on Male BALB-C mice was at least 10% each time. For the same compound, the “4 hr food intake (g ± S.E.M.)” value in the series with OB/OB female mice is recorded as 0.29 ± 0.11* g.
In the case of `Cc1nc(N2CCCCC2C)c2[nH]c(-c3ccccc3)cc2n1` (stereo not drawn) [Example 63, 2-Methyl-6-phenyl-4-(2-methylpiperidinyl)pyrrolo(3,2-d)pyrimidine Hydrochloride Monohydrate], the inhibition in vivo at 30 mg/kg in the series on Long-Evans male rats [1] and with Male BALB-C mice was at least 10% in each case.
For `COc1ccc(-c2cc3nc(C)nc(N4CCCCC4)c3[nH]2)cc1F` [Example 119, 2-Fluoro-1-methoxy-4-[2-methyl-4-piperidylpyrrolo[4,5-d]pyrimidin-6-yl]benzene Hydrochloride Hydrate], the inhibition in vivo at 30 mg/kg in the series with Long-Evans male rats [1] and in the series on Male BALB-C mice was at least 10% each time.
Turning to `Cl.c1ccc(-c2cc3nc(C4CC4)nc(N4CCCCC4)c3[nH]2)cc1` [Example 69c, 2-Cyclopropyl-6-phenyl-4-piperidylpyrrolo[3,2-d]pyrimidine Hydrochloride], the melting point is 285.4 to 286 °C (dec.). Besides, the inhibition in vivo at 30 mg/kg with Long-Evans male rats [1] was at least 10%. Moreover, the inhibition in vivo at 30 mg/kg with Male BALB-C mice was at least 10%.
On to `Cc1nc(N2CCCCC2)c2oc(-c3ccc(Cl)cc3)cc2n1` [Example 95c, 6-(4-Chlorophenyl)-2-methyl-4-piperidinylfurano-[3,2-d]-pyrimidine Hydrochloride Hydrate], for which the inhibition in vivo at 30 mg/kg in the series on Long-Evans male rats [1] and in the series with Male BALB-C mice was at least 10% in each case.
Turning to `Cc1nc(N2CC=CC2)c2[nH]c(-c3ccccc3)cc2n1` [Example 61, 2-Methyl-6-phenyl-4-(pyrrolinyl)pyrrolo[3,2-d]pyrimidine Hydrochloride Monohydrate], the inhibition in vivo at 30 mg/kg in the series on Long-Evans male rats [1] and with Male BALB-C mice was at least 10% each time.
As for `Cc1nc(N2CCCCC2)c2[nH]c(-c3ccn(S(=O)(=O)c4ccccc4)c3)cc2n1` [Example 101, 3-(2-Methyl-4-piperidylpyrrolo[4,5-d]pyrimidin-6-yl)-1-(phenylsulfonyl)pyrrole Hydrochloride Hydrate], the inhibition in vivo at 30 mg/kg in the series on Long-Evans male rats [1] and in the series on Male BALB-C mice was at least 10% each time.
Regarding `Cc1nc(N2CCCCC2)c2[nH]c(-c3ccc(F)c(F)c3)cc2n1` [Example 121, 6-(3,4-Difluorophenyl)-2-methyl-4-piperidylpyrrolo[3,2-d]pyrimidine Hydrochloride Hydrate], the inhibition in vivo at 30 mg/kg in the series with Long-Evans male rats [1] and in the series on Male BALB-C mice was at least 10% in each case.
Take `Cc1nc(N2CCCCC2)c2sc(-c3ccc(Cl)cc3)cc2n1` [Example 33, 6-(4-Chlorophenyl)-2-methyl-4-piperidylthiopheno[3,2-d]pyrimidine Hydrochloride]: the inhibition in vivo at 30 mg/kg with Long-Evans male rats [1] and with Male BALB-C mice was at least 10% throughout.
On to `Cc1nc(N2CCCCC2)c2[nH]c(-c3ccc(OC(F)(F)F)cc3)cc2n1` [Example 195d, Trifluoro[4-(2-methyl-4-piperidylpyrrolo[4,5-d]pyrimidin-6-yl)phenoxylmethane Hydrochloride Monohydrate], for which the inhibition in vivo at 30 mg/kg with Long-Evans male rats [1] and with Male BALB-C mice was at least 10% in each case.
For the compound `Cc1nc(N2CC=CC2)c2[nH]c(-c3cccc(Cl)c3)cc2n1` [Example 198, 6-(3-Chlorophenyl)-2-methyl-4-(3-pyrrolinyl)pyrrolo[3,2-d]pyrimidine Hydrochloride Hydrate], the inhibition in vivo at 30 mg/kg with Long-Evans male rats [1] and with Male BALB-C mice was at least 10% each time.
In the case of `Cc1nc(N2CCCCC2)c2[nH]c(-c3cc4ccccc4o3)cc2n1` [Example 85, 2-(2-Methyl-4-piperidylpyrrolo[4,5-d]pyrimidin-6-yl)benzo[b]furan Hydrochloride Monohydrate], the inhibition in vivo at 30 mg/kg with Long-Evans male rats [1] and in the series on Male BALB-C mice was at least 10% in each case.
